# Test results reported in patent US8658672B2, “HIF-1α activating agent” (University of Seoul Foundation of Industrial and Academic …, priority 2006, dated 2014).
# Columns and labels:
# HIF-1α [1] = assay: Effects of CQ and TPEN on HIF-1α stabilization in HepG2 cells (Western blotting); type: cell-based, human; conditions: 6 hours, TPEN 5 μM
# Method: Human HepG2 hepatoma cells (ATCC HB-8065) were cultured under normoxic condition and under hypoxic condition, respectively. HepG2 cells were cultured in MEM (Invitrogen, USA) containing non-essential amino acids and supplemented with 10% FBS (fetal bovine serum: Biowhittaker, USA). The cells were made hypoxic by incubation in anaerobic incubator (Model 1029, Form a Scientific. Inc) at 37° C. with 5% CO2, 10% H2 and 85% N2. The cells were treated with drugs one hour before incubation under hypoxic condition. To separate RNAs, the cells were incubated for 16 hours under hypoxic condition and to separate proteins the cells were cultured for 6 hours under hypoxic condition. […] HIF-1α expression was investigated by Western blotting. Samples from each group proceeded to 8% SDS-PAGE for electrophoresis and were then transferred onto nitrocellulose membrane (Schleicher & Schuell Bioscience, USA). Anti-human HIF-1α antibody (BD Pharmingen, USA) (1:800) was used as a primary antibody and mouse-Ig conjugated horseradish peroxidase (1:3,000) was used as a secondary antibody. Anti-β tubulin antibody (BD, Pharmingen, USA) was used as a control.
# human PHD2 = biological target: T1, human PHD2 (Homo sapiens, UniProt Q9GZT9); assay: PHD2 activity, in vitro VHL pull down assay; type: biochemical; conditions: capture of [35S]-labeled VHL by GST-ODD of human HIF-1α
# T1 construct: histidine tag; made in house; host or cells: E. coli
# Method: The present inventors investigated the effect of CQ on the activity of PHD2. Human PHD2 gene (AJ310543) was cloned into pET21b His2(+) vector and then the human PHD2 was expressed with a histidine tag in E. coli and purified by Ni-affinity chromatography (Choi, K. O. et al., Mol. Pharrmacol. 68, 1803-1809, 2005). The in vitro VHL pull down assay was performed as described by Haakkola et al (Haakkola, P. et al., Science 292,468-472, 2001). Particularly, [^35S]-methionine-labeled VHL protein was synthesized by in vitro transcription and translation using the pcDNA3.1/myc-hygro-VHL plasmid (Promega, Cat# L1170, USA), according to the instruction manual (Promega, Cat# L1170). GST-ODD (amino acids 401-603 of human HIF-1α) was expressed in E. coli and purified with glutathione-uniflow resin according to the instruction manual (BD Bioscience Clontech, Cat# 8912-1, USA). […] After agitation at 4° C. for 2 hours, the resin was washed three times with 1 ml of NETN buffer, and proteins were eluted in 3×SDS sample buffer, fractionated by 12% SDS-PAGE, and detected by autoradiography. The amount of each sample loaded was monitored by staining the GST-ODD with Coomassie blue.
# HIF-1α [2] = assay: In vivo HIF-1α ubiquitination in HepG2 cells (Western blotting); type: cell-based, human; conditions: normoxic condition, 6 hours, CQ 100 μM, TPEN 5 μM
# HIF-1α and CBP = biological target: T2, HIF-1α and CBP (UniProt P45481+Q16665); assay: In vitro interaction between HIF-1α and CBP; type: binding, human; conditions: [35S]-labeled HIF-1α, bead-bound GST-CBP N-domain, with or without ZnCl2 20 μM
# T2 construct: GST-CBP N-domain (amino acids 1-450); made in house
# Method: Glutathione-uniflow resin bound protein was washed four times with 1 ml of 0.1% Nonidet P-40 containing binding buffer, eluted by heating in SDS sample buffer, and fractionated by SDS-PAGE (Dann et al., Proc Natl Acad Sci USA 99:15351-15356, 2002).
# [3] = cited from earlier work
# FIH-1 = FIH-1 (Homo sapiens, UniProt Q9NWT6); assay: In vitro FIH-1 activity (capture of radio-labeled HIF-1α by GST-CBP); type: biochemical; design: histidine tag; made in house; host or cells: E. coli; conditions: CQ 10 μM and 50 μM; interaction between HIF-1α and CBP as readout
# Method: The human FIH-1 gene (AF395830) was cloned into pET28a vector (Novagen, USA) and FIH-1 was overexpressed in E. coli as a histidine-tagged fusion protein and purified by Ni-affinity chromatography. The fusion protein was purified by gel-filtration chromatography (Hi-Load Superdex 200) and concentrated by ultrafiltration (Choi et al., Mol Pharmacol 68:1803-1809, 2005).
# The resin-bound GST-CBP N-domain (amino acids 1-450) (Kamei et al., Cell 85:403-414, 1996) was then added to 1 μg of each mixture in 500 μl of binding buffer (200 mM Tris-HCl (pH 8.0), 150 mM NaCl, 20 μM ZnCl2, 0.5 mM DTT) and incubation continued for one hour at 4° C. Glutathione-uniflow resin bound protein was washed four times with 1 ml of 0.1% Nondiet P-40 containing binding buffer, and visualized by SDS-PAGE by eluting using SDS sample buffer (Dann et al., Proc Natl Acad Sci USA 99:15351-15356, 2002). The present inventors substituted the asparagine-803 residue of HIF-1α with alanine to generate HIF-1α mutant [HIF-1α-C(N803A)], followed by investigation on FIH-1 activity by the same manner as described above.
# Radio-labeled HIF-1α was reacted with the purified recombinant FIH-1, in the presence or absence of CQ or TPEN. FIH-1 was expected to […] the asparagine-803 residue of HIF-1α and thus inhibit the interaction with CBP binding to HIF-1α transactivation domain (Mahon, P. C. et al., Genes Dev. 15, 2675-2686, 2001; Dannm C. E. R., et al., Proc. Natl. Acad. Sci. USA 99, 15351-15356, 2002; Lando, D., et al., Science 295, 858-861, 2002; Freedman, S. J. et al., Proc. Natl. Acad. Sci. USA 99, 5367-5372, 2002).
# T2 sequence (P45481 1-450 limits assumed, one chain of several): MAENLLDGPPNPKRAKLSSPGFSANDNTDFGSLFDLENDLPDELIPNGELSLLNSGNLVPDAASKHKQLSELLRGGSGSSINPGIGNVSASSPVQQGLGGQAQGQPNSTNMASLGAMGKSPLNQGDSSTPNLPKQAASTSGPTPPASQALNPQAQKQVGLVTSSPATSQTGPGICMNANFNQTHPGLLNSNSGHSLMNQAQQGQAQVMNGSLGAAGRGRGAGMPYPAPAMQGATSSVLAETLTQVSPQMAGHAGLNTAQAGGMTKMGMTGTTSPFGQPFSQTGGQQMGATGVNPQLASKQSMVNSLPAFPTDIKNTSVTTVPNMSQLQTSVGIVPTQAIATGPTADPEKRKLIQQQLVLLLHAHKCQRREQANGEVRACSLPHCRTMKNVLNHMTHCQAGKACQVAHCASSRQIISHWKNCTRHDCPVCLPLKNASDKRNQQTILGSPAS
# T1 sequence (Q9GZT9 whole entry): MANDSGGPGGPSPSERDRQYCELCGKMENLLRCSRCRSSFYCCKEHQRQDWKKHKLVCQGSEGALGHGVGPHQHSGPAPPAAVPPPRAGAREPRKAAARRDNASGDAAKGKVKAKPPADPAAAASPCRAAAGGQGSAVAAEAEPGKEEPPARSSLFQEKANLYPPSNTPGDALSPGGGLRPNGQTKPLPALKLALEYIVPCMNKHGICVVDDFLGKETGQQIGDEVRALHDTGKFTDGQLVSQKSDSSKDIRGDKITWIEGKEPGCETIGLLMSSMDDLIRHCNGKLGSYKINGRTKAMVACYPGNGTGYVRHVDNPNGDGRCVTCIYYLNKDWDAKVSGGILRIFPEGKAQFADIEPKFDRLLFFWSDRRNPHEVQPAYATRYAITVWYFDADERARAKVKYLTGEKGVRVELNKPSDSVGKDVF
# Sequence of FIH-1 (Q9NWT6 whole entry, the tested form may be a part): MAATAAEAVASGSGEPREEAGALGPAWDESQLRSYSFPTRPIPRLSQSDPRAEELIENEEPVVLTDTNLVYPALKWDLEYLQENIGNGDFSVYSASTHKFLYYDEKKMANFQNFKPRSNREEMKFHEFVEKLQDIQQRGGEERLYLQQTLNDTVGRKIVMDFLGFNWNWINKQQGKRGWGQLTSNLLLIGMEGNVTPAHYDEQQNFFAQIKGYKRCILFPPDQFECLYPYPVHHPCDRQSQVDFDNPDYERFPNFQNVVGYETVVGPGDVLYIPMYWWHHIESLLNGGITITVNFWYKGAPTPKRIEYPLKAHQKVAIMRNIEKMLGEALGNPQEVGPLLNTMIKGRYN
structure (smiles),measurement,setting,value
"c1ccc(CN(CCN(Cc2ccccn2)Cc2ccccn2)Cc2ccccn2)nc1 [TPEN, tetrakis-(2-pyridylmethyl)ethanediamine]",HIF-1α accumulation,"HIF-1α [1]; hypoxic condition, CQ 10, 100 μM, compared with a control",induced HIF-1α accumulation
same,level of HIF-1α protein,"HIF-1α [1]; normoxic condition, CQ 10, 100, 500 μM",increased the level of HIF-1α protein
same,activity of PHD2,human PHD2,increased the activity of PHD2
same,HIF-1α ubiquitination in cells,HIF-1α [2],inhibited HIF-1α ubiquitination
same,direct effect on the interaction between CBP and HIF-1α,HIF-1α and CBP,neither CQ nor TPEN directly affected the interaction between CBP and HIF-1α
same,"pKa value, Ca2+",[3]; Ca^2+,3
same,"pKa value, Fe3+",[3]; Fe^3+,14.4
same,"pKa value, Zn2+",[3]; Zn^2+,15.4
same,FIH-1 activity,FIH-1,did not reduce FIH-1 activity
